From ChEMBL document CHEMBL4130472, “Synthesis of naphthazarin derivatives and identification of novel thioredoxin reductase inhibitor as potential anticancer agent” (Eur J Med Chem, 2017)

Tested on: HL-60
Assay: Cytotoxicity in human HL60 cells assessed as cell viability at 20 uM incubated for 48 hrs by MTT assay
Format: functional
Conditions: HL-60, 48 h, read-out: Activity

SMILES: O=C1C=C(N2CCOCC2)C(=O)c2c(O)ccc(O)c21
- viability at 20 µM: 50.1%

SMILES: CCCCCCCCNC1=CC(=O)c2c(O)ccc(O)c2C1=O
- viability at 20 µM: 61.1%

SMILES: CCNC1=CC(=O)c2c(O)ccc(O)c2C1=O
- viability at 20 µM: 56.4%

SMILES: CCCNC1=CC(=O)c2c(O)ccc(O)c2C1=O
- viability at 20 µM: 59.4%

SMILES: O=C1C=C(NCc2ccccc2)C(=O)c2c(O)ccc(O)c21
- viability at 20 µM: 54.6%

SMILES: O=C1C=C(N2CCCC2)C(=O)c2c(O)ccc(O)c21
- viability at 20 µM: 97.2%

SMILES: O=C1C=C(Nc2ccccc2)C(=O)c2c(O)ccc(O)c21
- viability at 20 µM: 59.7%

SMILES: O=C1C=C(N2CCCCC2)C(=O)c2c(O)ccc(O)c21
- viability at 20 µM: 54.9%
